# Values joined by “and” are separate entries in the source; they are usually repeats but may differ in a detail not shown here. Equal values may be shown once. Inconclusive results and toxic doses are left out.
# Test system: BDF1 mice, B16 melanoma ip, median survival T/C
# Assay: NCI In Vivo Anticancer Drug Screen. Data for tumor model B16 Melanoma (intraperitoneal) in B6D2F1 (BDF1) mice
# Conditions: endpoint: median survival time, higher = longer survival
# How it was run: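 Each result divides a survival or tumor-size measurement in the compound-treated group by the same measurement in the vehicle group.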
# [1] = dose: 0.5 mg/kg/injection, schedule: Q01DX009 (ip), vehicle: saline
# [2] = dose: 12.5 mg/kg/injection, schedule: Q01DX009 (ip), vehicle: Klucel (hydroxypropylcellulose) (HPC)
# [3] = dose: 100.0 mg/kg/injection, schedule: Q01DX009 (ip), vehicle: saline with Tween-80
# [4] = dose: 200.0 mg/kg/injection, schedule: Q01DX009 (ip), vehicle: saline with Tween-80
smiles,measurement,setting,value
CC(C)[C@](O)(C(=O)OCC1=CC[N+]2([O-])CC[C@@H](O)[C@@H]12)[C@H](C)O (stereo not given in full),T/C,"dose: 12.5 mg/kg/injection, schedule: Q01DX009 (ip), vehicle: water",105 % of control
same,T/C,"dose: 16.0 mg/kg/injection, schedule: Q03HX008 (ip), vehicle: water",93 % of control
same,T/C,"dose: 16.0 mg/kg/injection, schedule: Q03HX016 (ip), vehicle: water",96 % of control
same,T/C,"dose: 16.0 mg/kg/injection, schedule: Q03HX024 (ip), vehicle: water",96 % of control
same,T/C,"dose: 25.0 mg/kg/injection, schedule: Q01DX009 (ip), vehicle: water",117 % of control
same,T/C,"dose: 32.0 mg/kg/injection, schedule: Q03HX008 (ip), vehicle: water",99 % of control
same,T/C,"dose: 32.0 mg/kg/injection, schedule: Q03HX016 (ip), vehicle: water",94 % of control
same,T/C,"dose: 32.0 mg/kg/injection, schedule: Q03HX024 (ip), vehicle: water",100 % of control
same,T/C,"dose: 64.0 mg/kg/injection, schedule: Q01DX009 (ip), vehicle: saline",113 % of control
same,T/C,"dose: 64.0 mg/kg/injection, schedule: Q01DX009 (ip), vehicle: water",103 % of control
same,T/C,"dose: 64.0 mg/kg/injection, schedule: Q03HX008 (ip), vehicle: water",108 % of control
same,T/C,"dose: 64.0 mg/kg/injection, schedule: Q03HX016 (ip), vehicle: water",108 % of control
same,T/C,"dose: 64.0 mg/kg/injection, schedule: Q03HX024 (ip), vehicle: water",120 % of control
same,T/C,"dose: 100.0 mg/kg/injection, schedule: Q01DX009 (ip), vehicle: saline sonified",104 % of control
same,T/C,"dose: 128.0 mg/kg/injection, schedule: Q01DX001 (ip), vehicle: water",103 % of control
same,T/C,"dose: 128.0 mg/kg/injection, schedule: Q01DX009 (ip), vehicle: saline",113 % of control
same,T/C,"dose: 128.0 mg/kg/injection, schedule: Q01DX009 (ip), vehicle: water",119 % of control
same,T/C,"dose: 128.0 mg/kg/injection, schedule: Q01DX009 (oral), vehicle: water",95 % of control and 101 % of control
same,T/C,"dose: 128.0 mg/kg/injection, schedule: Q03HX008 (ip), vehicle: water",123 % of control
same,T/C,"dose: 128.0 mg/kg/injection, schedule: Q04DX003 (ip), vehicle: water",102 % of control
same,T/C,"dose: 128.0 mg/kg/injection, schedule: Q08DX002 (ip), vehicle: water",105 % of control
same,T/C,"dose: 228.0 mg/kg/injection, schedule: Q01DX009 (ip), vehicle: saline",119 % of control
same,T/C,"dose: 256.0 mg/kg/injection, schedule: Q01DX009 (oral), vehicle: water",93 % of control and 96 % of control
same,T/C,"dose: 256.0 mg/kg/injection, schedule: Q03HX016 (ip), vehicle: water",150 % of control
same,T/C,"dose: 256.0 mg/kg/injection, schedule: Q04DX003 (ip), vehicle: water",106 % of control
same,T/C,"dose: 256.0 mg/kg/injection, schedule: Q08DX002 (ip), vehicle: water",118 % of control
same,T/C,"dose: 512.0 mg/kg/injection, schedule: Q01DX001 (ip), vehicle: water",113 % of control
same,T/C,"dose: 512.0 mg/kg/injection, schedule: Q01DX009 (ip), vehicle: water",150 % of control and 182 % of control
same,T/C,"dose: 512.0 mg/kg/injection, schedule: Q01DX009 (oral), vehicle: water",94 % of control and 95 % of control
same,T/C,"dose: 512.0 mg/kg/injection, schedule: Q08DX002 (ip), vehicle: water",123 % of control
same,T/C,"dose: 600.0 mg/kg/injection, schedule: Q01DX009 (ip), vehicle: water",163 % of control
same,T/C,"dose: 768.0 mg/kg/injection, schedule: Q01DX009 (ip), vehicle: saline",100 % of control
same,T/C,"dose: 800.0 mg/kg/injection, schedule: Q01DX009 (ip), vehicle: saline sonified",150 % of control
same,T/C,"dose: 1024.0 mg/kg/injection, schedule: Q01DX009 (oral), vehicle: water",97 % of control and 99 % of control
same,T/C,"dose: 2048.0 mg/kg/injection, schedule: Q08DX002 (ip), vehicle: water",169 % of control
COc1cc2c(cc1O)N=C[C@@H]1CCC(O)N1C2=O (mixture of isomers),T/C,[1],99 % of control
same,T/C,"dose: 1.0 mg/kg/injection, schedule: Q01DX009 (ip), vehicle: saline",99 % of control
same,T/C,"dose: 2.0 mg/kg/injection, schedule: Q01DX009 (ip), vehicle: saline",98 % of control
same,T/C,"dose: 4.0 mg/kg/injection, schedule: Q01DX009 (ip), vehicle: saline",101 % of control and 119 % of control
CCN(CC)Cc1ncccc1O,T/C,"dose: 50.0 mg/kg/injection, schedule: Q01DX009 (ip), vehicle: Klucel (hydroxypropylcellulose) (HPC)",107 % of control
same,T/C,"dose: 100.0 mg/kg/injection, schedule: Q01DX009 (ip), vehicle: Klucel (hydroxypropylcellulose) (HPC)",103 % of control
CC(C)c1ccc(NC(=O)Nc2cc(Cl)ccc2Cl)cc1,T/C,"dose: 4.0 mg/kg/injection, schedule: Q01DX009 (ip), vehicle: gum acacia",93 % of control
same,T/C,"dose: 8.0 mg/kg/injection, schedule: Q01DX009 (ip), vehicle: gum acacia",90 % of control
same,T/C,"dose: 16.0 mg/kg/injection, schedule: Q01DX009 (ip), vehicle: gum acacia",93 % of control
S=P(N1CC1)(N1CC1)N1CC1,T/C,[1],104 % of control
same,T/C,"dose: 1.0 mg/kg/injection, schedule: Q02DX009 (ip), vehicle: saline",106 % of control and 120 % of control
same,T/C,"dose: 1.5 mg/kg/injection, schedule: Q01DX009 (ip), vehicle: saline",110 % of control and 120 % of control
same,T/C,"dose: 1.5 mg/kg/injection, schedule: Q02DX009 (ip), vehicle: saline",112 % of control
same,T/C,"dose: 2.0 mg/kg/injection, schedule: Q02DX009 (ip), vehicle: saline",94 % of control and 111 % of control
same,T/C,"dose: 3.0 mg/kg/injection, schedule: Q01DX009 (ip), vehicle: saline",104 % of control and 111 % of control
same,T/C,"dose: 3.0 mg/kg/injection, schedule: Q02DX009 (ip), vehicle: saline",120 % of control
same,T/C,"dose: 4.0 mg/kg/injection, schedule: Q02DX009 (ip), vehicle: saline",119 % of control and 120 % of control
same,T/C,"dose: 6.0 mg/kg/injection, schedule: Q01DX009 (ip), vehicle: saline",86 % of control
same,T/C,"dose: 6.0 mg/kg/injection, schedule: Q02DX009 (ip), vehicle: saline",116 % of control and 117 % of control
same,T/C,"dose: 8.0 mg/kg/injection, schedule: Q02DX009 (ip), vehicle: saline",88 % of control and 122 % of control
same,T/C,"dose: 12.0 mg/kg/injection, schedule: Q02DX009 (ip), vehicle: saline",86 % of control
CCN(C(=O)CCl)C(C)(C)C(SSSC(c1ccc(Cl)cc1)C(C)(C)N(CC)C(=O)CCl)c1ccc(Cl)cc1 (stereo not given),T/C,[2],100 % of control
same,T/C,"dose: 25.0 mg/kg/injection, schedule: Q01DX009 (ip), vehicle: Klucel (hydroxypropylcellulose) (HPC)",98 % of control
CC(=O)CC(=O)OCc1ccccc1,T/C,[3],107 % of control
same,T/C,[4],105 % of control
same,T/C,"dose: 400.0 mg/kg/injection, schedule: Q01DX009 (ip), vehicle: saline with Tween-80",100 % of control
COc1ccc(C2=CN(S(=O)(=O)c3ccc(C)cc3)CCc3ccccc32)cc1,T/C,"dose: 25.0 mg/kg/injection, schedule: Q04DX003 (ip), vehicle: Klucel (hydroxypropylcellulose) (HPC)",112 % of control
same,T/C,"dose: 50.0 mg/kg/injection, schedule: Q04DX003 (ip), vehicle: Klucel (hydroxypropylcellulose) (HPC)",110 % of control
same,T/C,"dose: 100.0 mg/kg/injection, schedule: Q04DX003 (ip), vehicle: Klucel (hydroxypropylcellulose) (HPC)",91 % of control and 111 % of control
same,T/C,"dose: 400.0 mg/kg/injection, schedule: Q04DX003 (ip), vehicle: Klucel (hydroxypropylcellulose) (HPC)",90 % of control
CC(=O)C1=C(C)NC(C)=C(C(C)=O)C1C,T/C,"dose: 50.0 mg/kg/injection, schedule: Q01DX009 (ip), vehicle: saline with Tween-80",100 % of control
same,T/C,[3],95 % of control
same,T/C,[4],102 % of control
CC(O)c1cccnc1 (stereo not given),T/C,"dose: 10.0 mg/kg/injection, schedule: Q01DX009 (ip), vehicle: saline",122 % of control
same,T/C,"dose: 20.0 mg/kg/injection, schedule: Q01DX009 (ip), vehicle: saline",116 % of control
same,T/C,"dose: 40.0 mg/kg/injection, schedule: Q01DX009 (ip), vehicle: saline",122 % of control
COC(=O)C(C)CN1CCCCCC1 (stereo not given),T/C,"dose: 50.0 mg/kg/injection, schedule: Q04DX003 (ip), vehicle: saline",108 % of control
same,T/C,"dose: 100.0 mg/kg/injection, schedule: Q04DX003 (ip), vehicle: saline",102 % of control
same,T/C,"dose: 200.0 mg/kg/injection, schedule: Q04DX003 (ip), vehicle: saline",100 % of control
Cc1cccc(C)c1NC(=S)N(C)C,T/C,"dose: 3.12 mg/kg/injection, schedule: Q01DX009 (ip), vehicle: Klucel (hydroxypropylcellulose) (HPC)",102 % of control
same,T/C,"dose: 3.13 mg/kg/injection, schedule: Q01DX009 (ip), vehicle: saline with Tween-80",110 % of control
same,T/C,"dose: 6.25 mg/kg/injection, schedule: Q01DX009 (ip), vehicle: Klucel (hydroxypropylcellulose) (HPC)",100 % of control
same,T/C,"dose: 6.25 mg/kg/injection, schedule: Q01DX009 (ip), vehicle: saline with Tween-80",115 % of control
same,T/C,[2],91 % of control and 100 % of control
same,T/C,"dose: 12.5 mg/kg/injection, schedule: Q01DX009 (ip), vehicle: saline with Tween-80",112 % of control

# — PubChem BioAssay AID192 (DTP/NCI, 2004)
